{"source": "paper PMC8075256", "about": "“Transport of Alzheimer’s associated amyloid-β catalyzed by P-glycoprotein” (PLOS ONE, 2021)", "origin": "cited, not measured here", "system": "P-gp and BCRP", "conditions": "ref 65 Kannan et al.", "description": "To further test if P-gp can transport Aβ42, we performed fluorescence accumulation assays in a human cellular system. […] Previous work by our group has shown that the chemotherapy-sensitive, non-P-gp-overexpressing DU145 cells do express detecta ...", "data": [{"smiles": "COc1cc2c(cc1OC)CN(CCc1ccc(NC(=O)c3cc(OC)c(OC)cc3NC(=O)c3cnc4ccccc4c3)cc1)CC2", "note": "[Tariquidar]", "values": [{"measurement": "concentrations at which TQR acts as an inhibitor of both P-gp and BCRP", "value": "greater than 100 nM"}]}]}
